No end group written: not given here.
How the values were obtained:
calmodulin = calmodulin (Homo sapiens, UniProt P0DP23); assay: Competition with SEQ ID NO 176 peptide binding to calmodulin; details: FIG. 20, FIG. 23
Text: To examine where the SEQ ID NO 176 peptide bound the CaM molecule, we attempted to block binding with other peptides that have been previously shown to bind to the central, linker region of CaM (See Persechini and Kretsinger, 1988, J. Cardiovasc. Pharmacol 12:S1-12; Ikura et al., 1992, Cell Calcium 13:391-400; Chapman et al., 1992, Biochemistry 31:12819-25; Meador et al., 1992, Science 257: 1251-1255). It is this region of CaM that binds various proteins to regulate their activity in a Ca^2+ -dependent manner.
If the site responsible for binding of the CaM specific TSARs to CaM were only a five or six residue peptide, then one would have expected to isolate about 10-20 CaM binding TSARs from the TSAR-12 library. However, since only one particular CaM binding TSAR was repeatedly isolated, it appears that the site of interaction between the CaM specific TSAR and CaM is complex, i.e., the site requires more than simply 5 or 6 residues. To illustrate regions of the SEQ ID NO 176 that are involved in binding to CaM, the ability of 4 modified peptides to compete with SEQ ID NO 176 binding for calmodulin were examined. The modified peptides were (a) the N-terminal 13 residues […] SEQ ID NO 185; (b) the C-terminal 13 residues […] SEQ ID NO 186; (c) the SEQ ID NO 176 peptide where, at position 4, W was changed to A--[…] SEQ ID NO. 184; and (d) a peptide having the reverse sequence […] SEQ ID NO. […]

[1] = system: vitamin D calcium-binding protein; assay: CaM-12.1 phage binding to wells coated with vitamin D calcium-binding protein; details: ELISA plate wells
Method: (§1) The binding properties of the CaM-12.1 TSAR were further examined in several ways. First, the ability of CaM-12.1 phage to bind other calcium-binding proteins was tested. […] Second, the ability of natural calmodulin binding peptides and proteins to compete for binding of the CaM-12.1 phage with CaM was tested. […] Third, the ability of a synthetic non-peptide CaM-antagonist, W7, (#681629; Calbiochem, San Diego, Calif.), was tested for its ability to compete for binding of CaM-12.1 to CaM. […] In summary: (1) CaM-12.1 binds CaM specifically, and not because it is a high-affinity Ca^2 +-binding protein; (2) CaM-12.1 binds CaM at a site partially overlapping or influenced, by the binding sites of CaM-dependentprotein kinase peptide, melittin and W7.

parvalbumin = assay: CaM-12.1 phage binding to wells coated with parvalbumin; details: ELISA plate wells
Method: as §1

calcineurin = assay: CaM-12.1 phage binding to calcineurin
Method: as §1

[2] = system: 7E11-C5 monoclonal antibody; assay: ELISA of antibody binding to immobilized peptide; parameters: species or system mouse; details: peptide adsorbed on polyvinylchloride plates, 0.5-500 μg/ml; FIG. 14, 15
Method: (§2) Peptides, diluted in 10% PBS (Dulbecco's, pH 7.2, Hazelton), were immobilized by adsorption on polyvinylchloride plates. SEQ ID NO 31 (amide form) was diluted in 10% PBS at 0.5, 5, 50 or 500 μg/ml. Control peptide 2 in 10% PBS at the same range of concentrations served as the control. A 50 μl volume of the test or control peptide solution was added to each well and incubated overnight at 4° C. The peptide solution was removed and 10% BSA-PBS was added as blocking solution. […] Bound 7E11-C5 monoclonal antibody was detected with anti-mouse IgG1 -HRP as described above herein.

B139 monoclonal antibody [3] = assay: ELISA of control antibody binding to immobilized peptide; parameters: species or system murine; details: peptide coated at 5 μg/ml; FIG. 15
Method: as §2

[4] = system: 7E11-C5 monoclonal antibody; assay: Competitive binding ELISA: inhibition of 7E11-C5 binding to LNCaP cell lysate antigen; parameters: species or system mouse; details: peptides, amide form; FIG. 13
Method: Each well of a polyvinylchloride 96-well ELISA plate (Cooke, Alexandria, Va.) was coated with an LNCAP human prostate carcinoma cell (ATCC # CRL 1740) lysate. Lysates were prepared by harvesting confluent LNCaP cell cultures, resuspending cells in 4 volumes of 1 mM MgCl2 for 5 minutes, mixing with 2 μg of DNase (Boehringer Mannheim, Indianapolis, Ind.) and homogenizing using 40 strokes in a Dounce homogenizer (Wheaton, Millville, N.J.). LNCaP lysate (50 μl per well of a 1:50 dilution in 0.1×PBS [Dulbecco's pH 7.2, JRH, Denver, Pa.]) was air dried overnight at 37° C. onto wells of the ELISA plate. ELISA plates were blocked with 150 μl/well of 1% BSA (Pentex Fraction V, Miles, Kankakee, Ill.) in PBS for 60 minutes at room temperature.
The blank control consisted of blocking solution in the absence of primary antibody. 7E11-C5 monoclonal antibody pre-incubated with buffer without any phage (MAb) was the positive control. The expression vector m663 phage was also employed as a non-specific phage control.
Plates were washed 4 times with 0.05% Tween-20 in PBS. Bound monoclonal antibody 7E11-C5 was detected by: (1) incubating with 50 μl/well of anti-mouse IgG1 -HRP (Fisher Biotech, Orangeburg, N.Y.) diluted to 0.4 ng/ml in 1% BSA-PBS, for 60 minutes at room temperature; (2) washing plates 6 times with 0.05% Tween-20 in PBS; and (3) adding 100 μl/well ABTS substrate [200 μl ABTS, (Boehringer Mannheim), 10 ml citrate buffer (pH 4), 10 μl H2 O2 ]. Optical density of the reactions products was determined by endpoint analysis on a Multiscan plate reader (Molecular Devices, Menlo Park, Calif.). The competitive inhibition (%) was determined by comparing the reactivity of the positive control to the test samples.
(§3) The TSAR-based peptide (SEQ ID NO 31) concentration ranged from 1.75 to 1130 nM. […] Two additional control peptides (amide form) having the following amino acid sequences: RGD-21: NH2 -[…]-CONH2 (SEQ ID NO 32) and CYT-379: NH2 -[…]-CONH2 (SEQ ID NO 33) were also evaluated. Herein these control peptides are referred to as Control Peptide 1 and Control Peptide 2. […] The B139 monoclonal antibody, which is a murine IgG1 monoclonal antibody that reacts with all human epithelial cells, recognizes a different antigen in the LNCaP extract from that recognized by the 7E11-C5 antibody. The control B139 monoclonal antibody was used at a concentration of 9 ng/ml. The results obtained are illustrated in FIG. 13.

B139 monoclonal antibody [5] = assay: Competitive binding ELISA: inhibition of B139 binding to LNCaP extract; parameters: species or system murine; details: B139 9 ng/ml; FIG. 13
Method: as §3

Substance | competition with binding of peptide SEQ ID NO 176 to CaM (calmodulin) | binding of 7E11-C5 to immobilized peptide [2] | binding of B139 to immobilized peptide (B139 monoclonal antibody [3]) | competitive inhibition of 7E11-C5 binding to LNCaP extract by peptide [4] | competitive inhibition of B139 binding to LNCaP extract by peptide (B139 monoclonal antibody [5]) | also measured
STVPRAIEDSLRGGAARAQTRLASWK [SEQ ID NO. 184] | none of the four peptides were able to compete | – | – | – | – | –
VPRWIEDSLRGGAARAQTRLASA [CaM-12.1] | – | – | – | – | – | binding to vitamin D calcium-binding protein [1]: failed to bind; binding to parvalbumin (parvalbumin): failed to bind; binding to calcineurin (calcineurin): did not bind
GAARAQTRLASWK [SEQ ID NO 186, C-terminal 13 residues] | none of the four peptides were able to compete | – | – | – | – | –
NH2 -SYGRGDVRGDFKCTCCA-CONH2 (H-SYGRGDVRGDFKCTCCA-NH2; cysteine pairing not given here) [Control Peptide 2] | – | did not bind to either of the tested antibodies | did not bind to either of the tested antibodies | did not effectively compete | neither SEQ ID NO 31 (amide form) nor either of Control Peptide 1 and Control Peptide 2 competitively inhibited the binding | –
PSYYRGDAGPSYYRGDAG-NH2 [Control Peptide 1] | – | did not bind to either of the tested antibodies | did not bind to either of the tested antibodies | did not effectively compete | neither SEQ ID NO 31 (amide form) nor either of Control Peptide 1 and Control Peptide 2 competitively inhibited the binding | –

Reference: patent US5948635A, “Totally Synthetic Affinity Reagents” (University of North Carolina at Chapel Hill, priority 1995, dated 1999)
